Experiments:
[1] = 303.15 K; 101.33 kPa; Liquid; Vibrating tube method
[2] = molar heat capacity at constant pressure; conditions: 101.33 kPa, Liquid, Small sample (50 mg) DSC
[3] = molar heat capacity at constant pressure; xn = mol fraction of the nth substance listed; conditions: 303.15 K, 101 kPa, Liquid, Small sample (50 mg) DSC
[4] = excess molar enthalpy (molar enthalpy of mixing); xn = mol fraction of the nth substance listed; conditions: 303.15 K, 101 kPa, Liquid, Flow calorimetry

CCCCO [butan-1-ol]
Conditions | mass density [kg/m3]
[1] | 801.98

[2]
Conditions | molar heat capacity at constant pressure [J/K/mol]
288.15 K | 166.2
293.15 K | 171.8
298.15 K | 175.3
303.15 K | 178.9
308.15 K | 182.8
313.15 K | 186.6
318.15 K | 190.8
323.15 K | 194.7

CCCCCCCCCCO [decan-1-ol]
Conditions | mass density [kg/m3]
[1] | 822.95

[2]
Conditions | molar heat capacity at constant pressure [J/K/mol]
288.15 K | 360.1
293.15 K | 368.5
298.15 K | 373.9
303.15 K | 379.3
308.15 K | 385.3
313.15 K | 390.6
318.15 K | 395.9
323.15 K | 401.3

CCCCCCCCCCO [decan-1-ol] + C[S+](C)[O-]
Conditions | excess molar enthalpy [kcal/mol] | molar heat capacity at constant pressure [J/K/mol]
[3], x2 = 0.0868 | – | 355.3
[3], x2 = 0.1641 | – | 338
[3], x2 = 0.2592 | – | 316.3
[3], x2 = 0.4231 | – | 282.4
[3], x2 = 0.5259 | – | 259.2
[3], x2 = 0.6431 | – | 235.2
[3], x2 = 0.7082 | – | 221.4
[3], x2 = 0.7997 | – | 201
[3], x2 = 0.8618 | – | 186.2
[3], x2 = 0.8908 | – | 179.2
[3], x2 = 0.9159 | – | 172.9
[3], x2 = 0.9596 | – | 162.1
[4], x2 = 0.1006 | 0.111 | –
[4], x2 = 0.1828 | 0.209 | –
[4], x2 = 0.2512 | 0.277 | –
[4], x2 = 0.3091 | 0.317 | –
[4], x2 = 0.4016 | 0.353 | –
[4], x2 = 0.4722 | 0.364 | –
[4], x2 = 0.573 | 0.36 | –
[4], x2 = 0.6414 | 0.353 | –
[4], x2 = 0.7286 | 0.328 | –
[4], x2 = 0.8011 | 0.301 | –
[4], x2 = 0.843 | 0.271 | –
[4], x2 = 0.8895 | 0.228 | –
[4], x2 = 0.9148 | 0.196 | –
[4], x2 = 0.9416 | 0.15 | –
[4], x2 = 0.9555 | 0.118 | –
[4], x2 = 0.9699 | 0.0846 | –
[4], x2 = 0.9847 | 0.0457 | –

C[S+](C)[O-] [dimethyl sulfoxide]
Conditions | mass density [kg/m3]
[1] | 1090.45

[2]
Conditions | molar heat capacity at constant pressure [J/K/mol]
288.15 K | 147.8
293.15 K | 149.4
298.15 K | 151.5
303.15 K | 152.4
308.15 K | 153.4
313.15 K | 155.4
318.15 K | 155.6
323.15 K | 156.6

C[S+](C)[O-] [dimethyl sulfoxide] + CCCCO
Conditions | excess molar enthalpy, [4] [kcal/mol] | molar heat capacity at constant pressure, [3] [J/K/mol]
x1 = 0.051 | 0.0715 | –
x1 = 0.0874 | – | 175.2
x1 = 0.097 | 0.124 | –
x1 = 0.1288 | – | 172.3
x1 = 0.1385 | 0.164 | –
x1 = 0.1769 | 0.189 | –
x1 = 0.2324 | – | 167
x1 = 0.2438 | 0.221 | –
x1 = 0.3007 | 0.236 | –
x1 = 0.364 | – | 161.2
x1 = 0.3921 | 0.255 | –
x1 = 0.4541 | – | 158
x1 = 0.4622 | 0.254 | –
x1 = 0.5633 | 0.245 | –
x1 = 0.5775 | – | 155.4
x1 = 0.6568 | – | 152.7
x1 = 0.6594 | 0.223 | –
x1 = 0.7207 | 0.201 | 151.6
x1 = 0.7577 | – | 150.8
x1 = 0.7947 | 0.171 | –
x1 = 0.8377 | 0.144 | –
x1 = 0.8537 | – | 150.3
x1 = 0.8856 | 0.112 | –
x1 = 0.9117 | 0.0901 | –
x1 = 0.919 | – | 150
x1 = 0.9393 | 0.0652 | –
x1 = 0.9542 | – | 151.5
x1 = 0.9687 | 0.0356 | –

C[S+](C)[O-] [dimethyl sulfoxide] + CCCO
Conditions | excess molar enthalpy [kcal/mol] | molar heat capacity at constant pressure [J/K/mol]
[3], x1 = 0.0514 | – | 146.2
[3], x1 = 0.1127 | – | 144
[3], x1 = 0.2114 | – | 141.8
[3], x1 = 0.3163 | – | 142.6
[3], x1 = 0.418 | – | 139.9
[3], x1 = 0.5029 | – | 140.6
[3], x1 = 0.6216 | – | 140.7
[3], x1 = 0.7068 | – | 141.6
[3], x1 = 0.7975 | – | 144.2
[3], x1 = 0.8537 | – | 145.6
[3], x1 = 0.8994 | – | 146.5
[3], x1 = 0.9429 | – | 147.6
[4], x1 = 0.0421 | 0.0449 | –
[4], x1 = 0.0808 | 0.0803 | –
[4], x1 = 0.1165 | 0.109 | –
[4], x1 = 0.1495 | 0.134 | –
[4], x1 = 0.2086 | 0.163 | –
[4], x1 = 0.2601 | 0.184 | –
[4], x1 = 0.3452 | 0.204 | –
[4], x1 = 0.4127 | 0.21 | –
[4], x1 = 0.5133 | 0.205 | –
[4], x1 = 0.6128 | 0.189 | –
[4], x1 = 0.6783 | 0.171 | –
[4], x1 = 0.7598 | 0.136 | –
[4], x1 = 0.8084 | 0.118 | –
[4], x1 = 0.8634 | 0.0884 | –
[4], x1 = 0.894 | 0.0722 | –
[4], x1 = 0.9268 | 0.0521 | –
[4], x1 = 0.962 | 0.0282 | –

C[S+](C)[O-] [dimethyl sulfoxide] + CCO
Conditions | excess molar enthalpy [kcal/mol] | molar heat capacity at constant pressure [J/K/mol]
[3], x1 = 0.0356 | – | 117.9
[3], x1 = 0.0504 | – | 119.1
[3], x1 = 0.1092 | – | 121.7
[3], x1 = 0.1636 | – | 121.8
[3], x1 = 0.2647 | – | 124.6
[3], x1 = 0.3441 | – | 126.3
[3], x1 = 0.4469 | – | 129.9
[3], x1 = 0.557 | – | 133
[3], x1 = 0.6498 | – | 136.8
[3], x1 = 0.7615 | – | 141
[3], x1 = 0.8872 | – | 146.6
[3], x1 = 0.9408 | – | 148
[4], x1 = 0.0332 | 0.0294 | –
[4], x1 = 0.0642 | 0.0514 | –
[4], x1 = 0.0933 | 0.0672 | –
[4], x1 = 0.1207 | 0.0813 | –
[4], x1 = 0.1707 | 0.0978 | –
[4], x1 = 0.2154 | 0.109 | –
[4], x1 = 0.2917 | 0.12 | –
[4], x1 = 0.3543 | 0.122 | –
[4], x1 = 0.4516 | 0.117 | –
[4], x1 = 0.5527 | 0.106 | –
[4], x1 = 0.6222 | 0.0949 | –
[4], x1 = 0.7119 | 0.077 | –
[4], x1 = 0.7671 | 0.0652 | –
[4], x1 = 0.8317 | 0.0483 | –
[4], x1 = 0.8682 | 0.0375 | –
[4], x1 = 0.9081 | 0.0282 | –
[4], x1 = 0.9518 | 0.0148 | –

From the NIST ThermoML archive (doi:10.1016/j.tca.2006.10.025)
